Laboratory results as given in patent publication US20190125888A1, “TARGETED CONJUGATES AND PARTICLES AND FORMULATIONS THEREOF” (priority 2015, published 2019).
Read-outs that look alike come from different tables or passages of the source.

Experiments:
[1] = system: NCI-H524 (ATCC) human lung cancer cells; assay type: cell-based
Experimental: FIG. 1 is a graph of various conjugates represented as bars and showing on the Y-axis their activity in an H524 proliferation assay with and without competition by octreotide. […] This illustrates the suprprising finding that only maytansinoid conjugates show activity that is dependent on the receptor.
Conjugates were assessed in an in vitro assay evaluating inhibition of cell proliferation. NCI-H524 (ATCC) human lung cancer cells were plated in 96 well, V-bottomed plates (Costar) at a concentration of 5,000 cells/well and 24 hours later were treated with compound for 6 hours and further incubated 66 hours. Compound starting dose was 20 μM and three fold serial dilutions were done for a total of ten points. After 6 hours of treatment, cells were spun down, the drug containing media was removed, and fresh complete medium was added and used to resuspend the cells, which were spun again. After removal of the wash media, the cells were resuspended in complete medium, then transferred into white walled, flat bottomed 96 well plates. […] Proliferation was measured using CellTiter Glo reagent using the standard protocol (Promega) and a Glomax multi+detection system (Promega). Percent proliferation inhibition was calculated using the following formula: % inhibition=(control-treatment)/control*100. Control is defined as vehicle alone. IC50 curves were generated using the nonlinear regression analysis (four parameter) with GraphPad Prism 6.
Conjugates were tested for their activity dependence on the somatostatin receptor. Active agent Z in the conjugate was selected from auristatin, carbazitaxel, DM1, doxorubicin, platinum, SN-38 and vinblastine. Active agent Z is connected to octreotide with various linkers. Proliferation IC50 values of the conjugates were measured. Proliferation IC50 values of the conjugates without octreotide competition were also measured. The ratio of IC50 with octreotide competition and IC50 without octreotide competition is an indicator of whether activity is at least particially dependent on bind to the somatostatin receptor. […] Therefore, the activity of conjugates comprising DM1 is dependent on the binding to the somatostatin receptor.

[2] = Ligand charge of maytansinoid conjugates; assay type: physicochemical
human SSTR2 = human SSTR2 (Homo sapiens, UniProt P30874); test: Radioligand-receptor binding assay, [125I] somatostatin, membranes from SSTR2 expressing CHO-K1 cells
Chain of human SSTR2 (P30874 whole entry): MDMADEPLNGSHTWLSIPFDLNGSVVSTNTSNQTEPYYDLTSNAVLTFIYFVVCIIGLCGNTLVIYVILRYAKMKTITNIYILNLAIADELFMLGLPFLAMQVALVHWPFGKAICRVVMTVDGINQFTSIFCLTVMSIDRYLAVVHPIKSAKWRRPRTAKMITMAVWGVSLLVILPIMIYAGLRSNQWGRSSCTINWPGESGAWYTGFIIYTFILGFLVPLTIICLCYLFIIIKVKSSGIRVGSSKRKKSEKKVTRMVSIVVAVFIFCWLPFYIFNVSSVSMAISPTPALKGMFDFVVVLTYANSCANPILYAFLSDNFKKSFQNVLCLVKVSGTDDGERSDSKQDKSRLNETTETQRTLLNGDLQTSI
Experimental: These conjugates were also assessed in an in vitro assay evaluating binding to the somatostatin receptor 2 (SSTR2). A radioligand-receptor binding assay was conducted at Eurofins Panlabs (Taiwan) to determine the affinity of conjugates described herein to the SSTR2. The assay measures binding of radiolabeled ligand, [^125I] labeled somatostatin, to human SSTR2 using membrane preparations from SSTR2 expressing CHO-K1 cells. Membranes were incubated with radiolabeled somatostatin (0.03 nM) in the presence of conjugate/compound starting at a dose of 10 uM using 6× serial dilutions to obtain a 10-pt curve. After a four hour incubation, membranes were filtered and washed 3× and counted to determine the remaining [^125I] somatostatin bound to the receptor. IC50 values were determined by a non-linear, least squares regression analysis using MathIQ™ (ID Business Solutions Ltd., UK).

[3] = read-out: H524 IC50 6 h, 6 hours treatment, further 66 hours incubation
[4] = read-out: H524 IC50 with 100 μM octreotide 6 h, with 100 μM octreotide competition, 6 h treatment

Row | SMILES | effect on cell proliferation ([1]; octreotide alone) | Ligand charge [2] | Ki (human SSTR2) [nM] | IC50 [1, 3] [nM] | IC50 [1, 4] [nM]
1 | C[C@@H](O)[C@@H]1NC(=O)[C@H](CCCCN)NC(=O)[C@@H](Cc2c[nH]c3ccccc23)NC(=O)[C@H](Cc2ccccc2)NC(=O)[C@@H](NC(=O)[C@H](N)Cc2ccccc2)CSSC[C@@H](C(=O)N[C@H](CO)[C@@H](C)O)NC1=O [Octreotide, H2N-D-Phe-Cys-Phe-D-Trp-Lys-Thr-Cys-Thr-ol (disulfide bridge Cys2-Cys7), reference compound] | no significant effect | – | – | – | –
2 | COc1cc2cc(c1Cl)N(C)C(=O)C[C@H](OC(=O)[C@H](C)N(C)C(=O)CCSSC(C)(C)[C@@H](NC(=O)[C@@H]1CSSC[C@H](NC(=O)[C@H](N)Cc3ccccc3)C(=O)N[C@@H](Cc3ccc(O)cc3)C(=O)N[C@H](Cc3c[nH]c4ccccc34)C(=O)N[C@@H](CCCCN)C(=O)N[C@@H]([C@@H](C)O)C(=O)N1)C(N)=O)[C@]1(C)O[C@H]1[C@H](C)[C@@H]1C[C@@](O)(NC(=O)O1)[C@H](OC)/C=C/C=C(\C)C2 [Conjugate 8] | – | +2 | 0.79 | 270 | 467
3 | CCNC(=O)N[C@H](Cc1ccccc1)C(=O)N[C@H]1CSSC[C@@H](C(=O)N[C@H](C(=O)N2CCCCC2)C(C)(C)SSCCC(=O)N(C)[C@@H](C)C(=O)O[C@H]2CC(=O)N(C)c3cc(cc(OC)c3Cl)C/C(C)=C/C=C/[C@@H](OC)[C@@]3(O)C[C@H](OC(=O)N3)[C@@H](C)[C@@H]3O[C@@]23C)NC(=O)[C@H]([C@@H](C)O)NC(=O)[C@H](CCCCN)NC(=O)[C@@H](Cc2c[nH]c3ccccc23)NC(=O)[C@H](Cc2ccc(O)cc2)NC1=O [Conjugate 33] | – | +1 | – | 265 | 462
4 | CCNC(=O)N[C@H](Cc1ccccc1)C(=O)N[C@H]1CSSC[C@@H](C(=O)N[C@@H](CSSCCC(=O)N(C)[C@@H](C)C(=O)O[C@H]2CC(=O)N(C)c3cc(cc(OC)c3Cl)C/C(C)=C/C=C/[C@@H](OC)[C@@]3(O)C[C@H](OC(=O)N3)[C@@H](C)[C@@H]3O[C@@]23C)C(N)=O)NC(=O)[C@H]([C@@H](C)O)NC(=O)[C@H](CCCCN)NC(=O)[C@@H](Cc2c[nH]c3ccccc23)NC(=O)[C@H](Cc2ccc(O)cc2)NC1=O [Conjugate 39] | – | +1 | 0.07 | 1.3 | 12
5 | COc1cc2cc(c1Cl)N(C)C(=O)C[C@H](OC(=O)[C@H](C)N(C)C(=O)CCSSC(C)(C)[C@H](NC(=O)[C@@H]1CSSC[C@H](NC(=O)[C@@H](Cc3ccccc3)NC(=O)NCc3ccc(C(F)(F)F)cc3)C(=O)N[C@@H](Cc3ccc(O)cc3)C(=O)N[C@H](Cc3c[nH]c4ccccc34)C(=O)N[C@@H](CCCCN)C(=O)N[C@@H]([C@@H](C)O)C(=O)N1)C(N)=O)[C@]1(C)O[C@H]1[C@H](C)[C@@H]1C[C@@](O)(NC(=O)O1)[C@H](OC)/C=C/C=C(\C)C2 [Conjugate 15] | – | +1 | 0.077 | 17 | 262
6 | COc1cc2cc(c1Cl)N(C)C(=O)C[C@H](OC(=O)[C@H](C)N(C)C(=O)CCSSCCNC(=O)CC[C@H]1C(=O)N[C@@H](Cc3ccc(O)cc3)C(=O)N[C@H](Cc3c[nH]c4ccccc34)C(=O)N[C@@H](CCCCNC(=O)NCCCCCCN)C(=O)N[C@@H]([C@@H](C)O)C(=O)N[C@@H](Cc3ccccc3)C(=O)N1C)[C@]1(C)O[C@H]1[C@H](C)[C@@H]1C[C@@](O)(NC(=O)O1)[C@H](OC)/C=C/C=C(\C)C2 [Conjugate 55] | – | +1 | 110 | – | –
7 | COc1cc2cc(c1Cl)N(C)C(=O)C[C@H](OC(=O)[C@H](C)N(C)C(=O)CCC(C)(C)SSC[C@H](NC(=O)[C@@H]1CSSC[C@H](NC(=O)[C@@H](Cc3ccccc3)NC(=O)Nc3ccccc3)C(=O)N[C@@H](Cc3ccc(O)cc3)C(=O)N[C@H](Cc3c[nH]c4ccccc34)C(=O)N[C@@H](CCCCN)C(=O)N[C@@H]([C@@H](C)O)C(=O)N1)C(N)=O)[C@]1(C)O[C@H]1[C@H](C)[C@@H]1C[C@@](O)(NC(=O)O1)[C@H](OC)/C=C/C=C(\C)C2 [Conjugate 5] | – | +1 | 0.32 | 7.7 | 317
8 | CCNC(=O)N[C@H](Cc1ccccc1)C(=O)N[C@H]1CSSC[C@@H](C(=O)N[C@H](C(=O)N[C@H](C(N)=O)C(C)(C)SSCCC(=O)N(C)[C@@H](C)C(=O)O[C@H]2CC(=O)N(C)c3cc(cc(OC)c3Cl)C/C(C)=C/C=C/[C@@H](OC)[C@@]3(O)C[C@H](OC(=O)N3)[C@@H](C)[C@@H]3O[C@@]23C)[C@@H](C)O)NC(=O)[C@H]([C@@H](C)O)NC(=O)[C@H](CCCCN)NC(=O)[C@@H](Cc2c[nH]c3ccccc23)NC(=O)[C@H](Cc2ccc(O)cc2)NC1=O [Conjugate 16] | – | +1 | – | 185 | 516
9 | CCNC(=O)N[C@H](Cc1ccccc1)C(=O)N[C@H]1CSSC[C@@H](C(=O)N[C@H](C(=O)N[C@@H](CSSCCC(=O)N(C)[C@@H](C)C(=O)O[C@H]2CC(=O)N(C)c3cc(cc(OC)c3Cl)C/C(C)=C/C=C/[C@@H](OC)[C@@]3(O)C[C@H](OC(=O)N3)[C@@H](C)[C@@H]3O[C@@]23C)C(N)=O)[C@@H](C)O)NC(=O)[C@H]([C@@H](C)O)NC(=O)[C@H](CCCCN)NC(=O)[C@@H](Cc2c[nH]c3ccccc23)NC(=O)[C@H](Cc2ccc(O)cc2)NC1=O [Conjugate 36] | – | +1 | – | 0.78 | 10
10 | CCNC(=O)N[C@H](Cc1ccccc1)C(=O)N[C@H]1CSSC[C@@H](C(=O)N[C@H](C(=O)NCCCCCN2C(=O)CC(SCCC(=O)N(C)[C@@H](C)C(=O)O[C@H]3CC(=O)N(C)c4cc(cc(OC)c4Cl)C/C(C)=C/C=C/[C@@H](OC)[C@@]4(O)C[C@H](OC(=O)N4)[C@@H](C)[C@@H]4O[C@@]34C)C2=O)[C@@H](C)O)NC(=O)[C@H]([C@@H](C)O)NC(=O)[C@H](CCCCN)NC(=O)[C@@H](Cc2c[nH]c3ccccc23)NC(=O)[C@H](Cc2ccc(O)cc2)NC1=O (stereo partly shown) [Conjugate 23] | – | +1 | – | 5 | 124
11 | CCCC(=O)N[C@H](Cc1ccccc1)C(=O)N[C@H]1CSSC[C@@H](C(=O)N[C@H](C(=O)NCCSSC(C)(C)CCC(=O)N(C)[C@@H](C)C(=O)O[C@H]2CC(=O)N(C)c3cc(cc(OC)c3Cl)C/C(C)=C/C=C/[C@@H](OC)[C@@]3(O)C[C@H](OC(=O)N3)[C@@H](C)[C@@H]3O[C@@]23C)[C@@H](C)O)NC(=O)[C@H]([C@@H](C)O)NC(=O)[C@H](CCCCN)NC(=O)[C@@H](Cc2c[nH]c3ccccc23)NC(=O)[C@H](Cc2ccc(O)cc2)NC1=O [Conjugate 3] | – | +1 | – | – | –
12 | COc1cc2cc(c1Cl)N(C)C(=O)C[C@H](OC(=O)[C@H](C)N(C)C(=O)CCSC1CC(=O)N(CCCCCNC(=O)[C@@H](NC(=O)[C@@H]3CSSC[C@H](NC(=O)[C@@H](Cc4ccccc4)NC(=O)NC4CCCCC4)C(=O)N[C@@H](Cc4ccc(O)cc4)C(=O)N[C@H](Cc4c[nH]c5ccccc45)C(=O)N[C@@H](CCCCN)C(=O)N[C@@H]([C@@H](C)O)C(=O)N3)[C@@H](C)O)C1=O)[C@]1(C)O[C@H]1[C@H](C)[C@@H]1C[C@@](O)(NC(=O)O1)[C@H](OC)/C=C/C=C(\C)C2 (stereo partly shown) [Conjugate 22] | – | +1 | – | 2.6 | 94
13 | COc1cc2cc(c1Cl)N(C)C(=O)C[C@H](OC(=O)[C@H](C)N(C)C(=O)CCSSC[C@@H](NC(=O)[C@@H]1CSSC[C@H](NC(=O)[C@@H](Cc3ccccc3)NC(C)=O)C(=O)N[C@@H](Cc3ccc(O)cc3)C(=O)N[C@H](Cc3c[nH]c4ccccc34)C(=O)N[C@@H](CCCCN)C(=O)N[C@@H]([C@@H](C)O)C(=O)N1)C(N)=O)[C@]1(C)O[C@H]1[C@H](C)[C@@H]1C[C@@](O)(NC(=O)O1)[C@H](OC)/C=C/C=C(\C)C2 [Conjugate 31] | – | +1 | 0.21 | – | –
14 | COc1cc2cc(c1Cl)N(C)C(=O)C[C@H](OC(=O)[C@H](C)N(C)C(=O)CCSSC(C)(C)[C@H](NC(=O)[C@@H](NC(=O)[C@@H]1CSSC[C@H](NC(=O)[C@@H](Cc3ccccc3)NCc3ccccc3)C(=O)N[C@@H](Cc3ccc(O)cc3)C(=O)N[C@H](Cc3c[nH]c4ccccc34)C(=O)N[C@@H](CCCCN)C(=O)N[C@@H]([C@@H](C)O)C(=O)N1)[C@@H](C)O)C(N)=O)[C@]1(C)O[C@H]1[C@H](C)[C@@H]1C[C@@](O)(NC(=O)O1)[C@H](OC)/C=C/C=C(\C)C2 [Conjugate 17] | – | +2 | – | 8.5 | 48
